For the assay, the target named is T1, human CaSR (Homo sapiens, UniProt P41180).
T1 construct: expressed in transfected cells; host or cells: HEK 293 cells, transient transfection of a CMV-promoter expression vector
T1 sequence (P41180 20-1078): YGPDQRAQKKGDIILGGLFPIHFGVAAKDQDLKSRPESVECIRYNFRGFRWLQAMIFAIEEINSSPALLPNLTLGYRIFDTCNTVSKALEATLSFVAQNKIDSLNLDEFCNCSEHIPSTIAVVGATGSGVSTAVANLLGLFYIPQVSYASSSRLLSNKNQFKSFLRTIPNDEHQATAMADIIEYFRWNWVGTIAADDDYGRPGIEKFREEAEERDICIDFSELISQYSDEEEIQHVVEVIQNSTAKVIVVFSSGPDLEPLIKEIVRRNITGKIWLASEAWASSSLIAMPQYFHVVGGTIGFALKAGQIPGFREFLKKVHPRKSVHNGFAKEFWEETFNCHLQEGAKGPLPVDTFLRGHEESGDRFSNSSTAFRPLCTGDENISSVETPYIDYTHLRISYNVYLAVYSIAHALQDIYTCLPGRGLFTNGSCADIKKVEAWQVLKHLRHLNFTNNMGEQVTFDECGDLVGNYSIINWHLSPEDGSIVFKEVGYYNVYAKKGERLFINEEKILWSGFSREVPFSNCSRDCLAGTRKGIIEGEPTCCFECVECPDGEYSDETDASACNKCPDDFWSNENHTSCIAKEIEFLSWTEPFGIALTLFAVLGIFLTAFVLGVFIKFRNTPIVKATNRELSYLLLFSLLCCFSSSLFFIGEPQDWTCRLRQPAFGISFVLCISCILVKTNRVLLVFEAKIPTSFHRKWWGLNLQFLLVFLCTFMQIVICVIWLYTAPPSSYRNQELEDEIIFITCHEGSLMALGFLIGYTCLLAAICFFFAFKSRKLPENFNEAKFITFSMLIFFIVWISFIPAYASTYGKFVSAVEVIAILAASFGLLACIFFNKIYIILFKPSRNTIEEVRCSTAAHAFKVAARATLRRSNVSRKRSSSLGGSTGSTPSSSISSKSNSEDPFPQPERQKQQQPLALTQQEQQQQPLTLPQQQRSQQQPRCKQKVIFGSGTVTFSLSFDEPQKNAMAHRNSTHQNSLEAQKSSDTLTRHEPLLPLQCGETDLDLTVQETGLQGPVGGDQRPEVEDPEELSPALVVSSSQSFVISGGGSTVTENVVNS
As to the kind of experiment: Calcium receptor (CaSR) activation activity: calcium imaging in HEK 293 cells expressing human CaSR. Format: cell-based. The note with it: concentration giving 50% of the maximal activity; single values n = 1, others n = 2 or 3. The protocol:
Calcium receptor (CaSR) activation activity of peptides obtained in Examples 2, 3, and 5-12 were measured as follows. A cDNA of human CaSR obtained in Example 1 of WO2007/055393A1 was inserted into an expression vector for an animal cell having a CMV promoter, and the cDNA in the vector was introduced into HEK 293 cells, which had multiplied to 70% of the maximal cell density, using FuGINE6 (Roche Ltd.). After culturing the cells for 4 to 48 hours, 0.6-1.0×10^5 of cells/well were disseminated into a 96-well plate, subsequently, the cells were cultured for one day, and then stained using Calcium 3 Assay Kit. The presence or absence of a calcium receptor activation activity of each peptide was confirmed by a calcium imaging method using FLEXSTATION (Molecular Devices Inc., instruction manual). Furthermore, the concentration of each peptide giving 50% of the maximal activity (EC50) was calculated using a dose characteristic curve.

Structures are written as SMILES. Numbered stars: 1 amine (or outer) side, 2 acyl side, 3 side chain; on linkers, the order of the positions; unused ones are H or OH. Square brackets hold non-standard residues; d marks the D form. Peptide text beside a SMILES is read from it. γGlu = O=C(O)[C@H](CCC(=O)[*:2])N[*:1]; Tle = CC(C)(C)[C@H](N)C(=O)O

By EC50 is commonly meant the concentration at which the effect is half-maximal. Consider `CC(C)(C)[C@H](NC(=O)CC[C@H](N)C(=O)O)C(=O)NCC(=O)O` [γ-Glu-t-Leu-Gly] (γGlu-[Tle]-Gly-OH), for which the EC50 lay within 43 to 77 nM.

Source of the values: US8420144B2, “Kokumi-imparting agent, method of using, and compositions containing same” (Ajinomoto Co., Inc., priority 2005, dated 2013).
